Here are results for 4 molecules from patent publication US6759207B2, “Fluorogenic or fluorescent reporter molecules and their applications for whole-cell fluorescence screening assays for caspases and other enzymes and the use thereof” (Cytovia, Inc., priority 1997, dated 2004).

Each structure is given as a SMILES string. Peptide text beside a SMILES is read from it. * marks the point of attachment. NH(Rh110(N'-COOEt)) = CCOC(=O)Nc1ccc2c(c1)Oc1cc(N*)ccc1C21OC(=O)c2ccccc21

Test [1] has as its target T1, recombinant human caspase-7 (Homo sapiens, UniProt P55210).
T1 sequence (P55210 24-198 limits assumed): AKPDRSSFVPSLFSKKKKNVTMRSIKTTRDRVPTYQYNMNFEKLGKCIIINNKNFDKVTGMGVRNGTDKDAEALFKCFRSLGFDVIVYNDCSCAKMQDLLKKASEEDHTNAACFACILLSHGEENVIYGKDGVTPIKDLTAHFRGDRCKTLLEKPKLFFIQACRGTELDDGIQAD
T1 sequence (P55210 207-303 limits assumed): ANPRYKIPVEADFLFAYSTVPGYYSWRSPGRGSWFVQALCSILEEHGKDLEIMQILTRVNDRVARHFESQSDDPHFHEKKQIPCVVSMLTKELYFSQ
In words: Cleavage of caspase-8 substrate by recombinant human caspase-7. It is filed as biochemical. Particulars: 10 μM substrate, 37° C. The method, then: (§1) N-Ac-LEVD-N-ethoxycarbonyl R110 SEQ ID NO:9 was assayed by recombinant human caspase-3, 6, 7, and 8. The assays were carried out at 37° C. in 96-well plates in a 100 μL incubation containing recombinant human caspase, 10 μM of N-Ac-LEVD-N′-ethoxycarbonyl R110 SEQ ID NO:9, and caspase assay buffer (40 mM PIPES, pH 7.2; 100 mM NaCl; 10% sucrose; 0.1% CHAPS; 1 mM EDTA; 10 mM DTT). At the end of the incubation period, the fluorescence was determined on a Bio-Tek FL500 fluorescence microplate reader using excitation and emission wavelengths of 485 and 530 nm, respectively. In order to correct for the endogenous fluorescence of the uncleaved substrate, controls were run which consisted of samples containing 10 μM N-Ac-LEVD-N′-ethoxycarbonyl R110 SEQ ID NO:9 without enzyme (“enzyme blanks”). Additional controls included samples containing the caspase inhibitor Ac-DEVD-CHO SEQ ID NO:5. […] Caspase-3 cleaved N-Ac-LEVD-N′-ethoxycarbonyl R110 SEQ ID NO:9 less efficiently, yielding a signal that was about 5-fold above the enzyme blank value.

Test [2] has as its target T2, recombinant human caspase-3 (Homo sapiens, UniProt P42574).
T2 sequence (P42574 29-175 limits assumed): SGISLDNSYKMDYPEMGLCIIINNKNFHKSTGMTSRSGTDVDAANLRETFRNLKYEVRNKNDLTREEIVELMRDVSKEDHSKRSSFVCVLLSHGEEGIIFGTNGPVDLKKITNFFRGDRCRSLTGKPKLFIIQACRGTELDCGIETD
T2 sequence (P42574 176-277 limits assumed): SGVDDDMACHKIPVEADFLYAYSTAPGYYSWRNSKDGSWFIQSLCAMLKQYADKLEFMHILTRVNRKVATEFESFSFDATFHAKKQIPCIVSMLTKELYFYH
In words: Cleavage of caspase-8 substrate by recombinant human caspase-3. Type of test: biochemical. Conditions: 10 μM substrate, 37° C. As to the method: as §1

In test [3] the target is recombinant human caspase-8 (Homo sapiens, UniProt Q14790). The test can be described thus: Cleavage of caspase-8 substrate by recombinant human caspase-8. It is filed as biochemical. Particulars: 10 μM substrate, 37° C. As to the method: as §1
Test [4] has as its target T3, recombinant human caspase-6 (Homo sapiens, UniProt P55212).
T3 sequence (P55212 24-179 limits assumed): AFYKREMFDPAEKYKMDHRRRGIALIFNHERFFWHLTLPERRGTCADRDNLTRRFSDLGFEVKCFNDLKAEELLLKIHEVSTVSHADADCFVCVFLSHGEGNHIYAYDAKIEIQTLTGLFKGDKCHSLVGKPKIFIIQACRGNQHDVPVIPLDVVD
T3 sequence (P55212 194-293 limits assumed): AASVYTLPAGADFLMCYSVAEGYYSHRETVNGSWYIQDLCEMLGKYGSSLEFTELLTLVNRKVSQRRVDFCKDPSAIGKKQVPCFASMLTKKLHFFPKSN
In words: Cleavage of caspase-8 substrate by recombinant human caspase-6. Type of test: biochemical. Conditions: 10 μM substrate, 37° C. As to the method: as §1

Test [5] has as its system HL-60 cells. The test can be described thus: Uptake and cleavage of aminopeptidase substrate by HL-60 cells. Type of test: cell-based. Conditions: 10 μM substrate, 3 hours at 37° C.; for fluorescence of cells under microscope: FIGS. 7A-B; for Counts/μg protein: excitation 485 nm, emission 525 nm. The method, then: HL-60 cells were placed in 5 ml of Iscove's medium (without serum or phenol-red) containing 10 μM N-G-N′-octyloxycarbonyl-R110 or 10 μM N-Z-G-N-octyloxycarbonyl-R110. Three million HL-60 cells were incubated for 3 hours at 37° C. in a CO2 incubator, recovered by centrifugation, and washed in 50 μL of ice-cold medium. The cells were re-centrifuged and the final pellet was resuspended in 50 μL of fresh medium. Aliquots of each cell suspension were placed in a microtiter 96-well plate and read on a Wallac 1420 microplate reader with excitation wavelength at 485 nm, emission wavelength at 525 nm. Aliquots of each cell suspension were also placed on microslides and viewed on a Nikon inverted microscope with epifluorescent illumination. […] There was no signal from the cells incubated with 10 μM N-Z-G-N′-octyloxycarbonyl-R110.

Test [6] deals with HL-60 cell lysates (aminopeptidases). In words: Cleavage of aminopeptidase substrate by HL-60 cell lysates (microtiter plate assay). Type of test: biochemical. Particulars: FIG. 6. The method, then:
Aminopeptidases are present in many cells and sequentially remove unblocked amino acid residues from peptides, starting from the N-terminus. Peptides with blocked amino termini are not cleaved. HL-60 lysates were prepared by homogenizing HL-60 cells in caspase buffer, and the ability of these lysates to cleave N-Z-G-N′-octyloxycarbonyl R110 and N-G-N′-octyloxycarbonyl-R110 was tested in a microtiter plate assay.

Test [7] relates to HL-60 cells. In words: Staining of apoptotic HL-60 cells by caspase-3 substrate (whole-cell assay, microscopy). Type of test: cell-based. Particulars: 50 μM substrate. As to the method: (§2) The ability of N-Ac-DEVD-N′-octyloxycarbonyl-R110 SEQ ID NO:5 to detect caspase activation in intact cells was tested using apoptotic HL-60 and Jurkat cells. These whole-cell assays were carried out in two stages: 1) induction of apoptosis; 2) incubation with the substrate. For HL-60 cells, apoptosis was induced by treatment with 10 μg/ml vinblastine for 4 hours. Control samples were treated with DMSO. For Jurkat cells, apoptosis was induced by treatment with 500 ng/ml agonistic antiFas antibody for 2 hours. Control samples were treated with PBS. Following apoptosis induction, the cells were incubated with 50 μM N-Ac-DEVD-N′-octyloxycarbonyl-R110 SEQ ID NO:5 in caspase assay buffer (40 mM PIPES, pH 7.4; 100 mM NaCl; 10% sucrose; 1 mM EDTA; 10 mM DTT). The cells were than transferred to a glass microslide and viewed by epifluorescent illumination on a Nikon inverted microscope.

In test [8] the target is T2, recombinant human caspase-3. In words: Cleavage of caspase-3 substrates by recombinant human caspase-3. It is filed as biochemical. Conditions: 10 μM or 50 μM substrate, 37° C. The method, then:
(§3) The caspase substrates were assayed by recombinant caspase-3 and by lysates prepared from apoptotic HL-60 cells. The assays were carried out at 37° C. in 96-well plates in a 100 μL incubation containing 30 μL of caspase-3 preparation or cell lysate, 10 μM or 50 μM of the substrate, and caspase assay buffer (40 mM 1,4-piperazinebis(ethansulfonic acid) (PIPES, Aldrich Chemical Company) pH 7.2; 100 mM NaCl; 10% sucrose; 0.1% CHAPS; 1 mM EDTA; 10 mM DTT). At the end of the incubation period, the fluorescence was measured on a Bio-Tek FL500 fluorescence microplate reader using excitation and emission wavelengths of 485 and 530 nm, respectively. Two different controls were run: 1) an enzyme blank consisting of samples containing substrate, but without enzyme or cell lysate; 2) an inhibitor control, consisting of samples which contained the caspase inhibitor, Ac-DEVD-CHO (f.c., 10 μM).

The test system of test [9] is Jurkat cells. In words: Cleavage of caspase-3 substrate by whole apoptotic Jurkat cells (plate reader). Type of test: cell-based. The method, then:
In order to quantitate the cleavage of N-Ac-[…]-N-octyloxycarbonyl-R110 SEQ ID NO:5 by whole cells, an assay was performed in which the fluorescent signal generated from this substrate by apoptotic Jurkat cells was measured in a spectrofluorometric plate reader. Jurkat cells were incubated for varying times in 96-well plates with 500 ng/ml antiFas antibody to induce apoptosis. Control cells were incubated with PBS. At the end of the treatment period, the cells were harvested, centrifuged in 1.5 ml tubes and resuspended in 25 μL of medium containing 1% FBS. 25 μL of caspase buffer containing 50 μM N-Ac-DEVD-N′-octyloxycarbonyl R110 SEQ ID NO:5 was added, and the cells were incubated for one hour. At the end of the incubation period, three 5 μL aliquots from each time point were placed in 96-well plates and the fluorescence was measured at excitation/emission wavelength of 485/530 nm. […] However, cells treated with antiFas gave a detectable fluorescent signal at about one hour after apoptosis induction, and the signal continued to increase up to the 2 hour timepoint, with a signal to background ratio of about 7.

Test [10] relates to Jurkat cells. In words: Staining of apoptotic Jurkat cells by caspase-3 substrate (whole-cell assay, microscopy). It is filed as cell-based. Conditions: 50 μM substrate. The method, then: as §2
Test [11] relates to apoptotic HL-60 cell lysates. The test can be described thus: Cleavage of caspase-3 substrates by apoptotic HL-60 cell lysates. It is filed as biochemical. Particulars: 10 μM or 50 μM substrate, 37° C., vinblastine treated HL-60 cell lysates. The method, then:
as §3

recombinant human caspase-8, sequence (Q14790 217-374 limits assumed): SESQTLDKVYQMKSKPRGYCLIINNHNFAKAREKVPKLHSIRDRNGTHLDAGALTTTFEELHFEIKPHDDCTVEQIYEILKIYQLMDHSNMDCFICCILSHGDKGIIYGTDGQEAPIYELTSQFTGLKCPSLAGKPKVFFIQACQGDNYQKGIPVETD
recombinant human caspase-8, sequence (Q14790 385-479 limits assumed): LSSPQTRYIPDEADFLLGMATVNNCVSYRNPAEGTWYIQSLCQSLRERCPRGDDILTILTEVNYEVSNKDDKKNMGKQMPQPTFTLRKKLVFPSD

Turning to `CCOC(=O)Nc1ccc2c(c1)Oc1cc(NC(=O)[C@H](CC(=O)O)NC(=O)[C@@H](NC(=O)[C@H](CCC(=O)O)NC(=O)[C@H](CC(C)C)NC(C)=O)C(C)C)ccc1C21OC(=O)c2ccccc21` (stereo partly drawn) [N-Ac-LEVD-N′-ethoxycarbonyl R110, N-(Ac-Leu-Glu-Val-Asp)-N′-ethoxycarbonyl-Rhodamine 110] (Ac-LEVD-{NH(Rh110(N'-COOEt))}), the fluorescent signal entry in test [1] is recorded as “virtually no signal”. In test [2], the “signal above the enzyme blank value” is recorded as “about 5 fold”. Also, the entries for the “signal to background ratio” value in test [3] and in test [4] were “about 26” and “about 13”, respectively.
Turning to `Br.CCCCCCCCOC(=O)Nc1ccc2c(c1)Oc1cc(NC(=O)CN)ccc1C21OC(=O)c2ccccc21` (centres unmarked) [N-G-N′-octyloxycarbonyl-R110, N-Gly-N′-octyloxycarbonyl-Rhodamine-110 HBr], in the test with HL-60 cells [5], the “signal from cells (microplate reader)” value is listed as “showed signal”, the “fluorescence of cells under microscope” value is given as “showed fluorescence under microscope” and the Counts/μg protein is recorded as 12.98 Counts/μg protein. Moreover, the “cleavage by HL-60 cell lysates” value in [6] is recorded as “readily cleaved”.
For the molecule `CCCCCCCCOC(=O)Nc1ccc2c(c1)Oc1cc(NC(=O)[C@H](CC(=O)O)NC(=O)[C@@H](NC(=O)[C@H](CCC(=O)O)NC(=O)[C@H](CC(=O)O)NC(C)=O)C(C)C)ccc1C21OC(=O)c2ccccc21` (stereo partly drawn) [N-Ac-DEVD-N′-octyloxycarbonyl-R110, N-(Ac-Asp-Glu-Val-Asp)-N′-octyloxycarbonyl-Rhodamine 110], in the test with HL-60 cells [7] (apoptosis induced by 10 μg/ml vinblastine for 4 hours), the “staining of vinblastine-treated HL-60 cells” value is listed as “intensely stained”. Besides, in the test with HL-60 cells [7] (control cells), the “staining of DMSO-treated HL-60 cells” value is reported as “some staining”. Besides, in test [8], the “Cleavage by Caspase-3” value is “Good”. The “signal to background ratio” value in the test on Jurkat cells [9] (antiFas-treated Jurkat cells, 2 hour timepoint, 485/530 nm) was “about 7”. Moreover, in the test with Jurkat cells [9] (control Jurkat cells), the “fluorescent signal of PBS-treated cells” value is “small fluorescent signal which did not increase”. For the same molecule, the “staining of antiFas-treated Jurkat cells” value in the test on Jurkat cells [10] (500 ng/ml agonistic antiFas antibody for 2 hours) was “intense staining”. Besides, the “staining of control Jurkat cells” value in the test on Jurkat cells [10] (PBS-treated) is “only light staining”. Besides, the “Cleavage by Apoptotic Lysates” value in test [11] is recorded as “Good”.
With `CCCCCCCCOC(=O)Nc1ccc2c(c1)Oc1cc(NC(=O)CNC(=O)OCc3ccccc3)ccc1C21OC(=O)c2ccccc21` (centres unmarked) [N-Z-G-N′-octyloxycarbonyl-R110, N-[Z-Gly]-N′-octyloxycarbonyl-Rhodamine-110], in the test on HL-60 cells [5], the “signal from cells (microplate reader)” value is on record as “no signal”, the “fluorescence of cells under microscope” value was “no fluorescence signal was observed” and the Counts/μg protein turned out to be 0 Counts/μg protein. Also, the “cleavage by HL-60 cell lysates” value in test [6] is “no signal was generated”.
